Results: BigSolDB 2.1

O=C(O)CC[C@H](NC(=O)OCC1c2ccccc2-c2ccccc21)C(=O)O
solubility (mole fraction)
Conditions | 283.15 K | 288.15 K | 293.15 K | 298.15 K | 303.15 K | 308.15 K | 313.15 K | 318.15 K | 323.15 K
in 2-butanone | 0.0112 | 0.0112 | 0.012 | 0.0127 | 0.0136 | 0.0143 | 0.0157 | 0.0176 | 0.0191
in acetone | 0.0243 | 0.0261 | 0.0274 | 0.0295 | 0.0323 | 0.0342 | 0.0393 | 0.0437 | 0.0471
in acetonitrile | 0.000662 | 0.000708 | 0.0008 | 0.000997 | 0.00123 | 0.00139 | 0.00166 | 0.00194 | 0.00232
in dimethyl carbonate | 0.00058 | 0.000625 | 0.000736 | 0.000819 | 0.000911 | 0.00108 | 0.00123 | 0.00157 | 0.00186
in ethanol | 0.0231 | 0.0257 | 0.0276 | 0.0319 | 0.0371 | 0.0419 | 0.0468 | 0.0514 | 0.0598
in ethyl acetate | 0.00239 | 0.0026 | 0.00296 | 0.00318 | 0.00347 | 0.00391 | 0.00451 | 0.00498 | 0.0056
in isopropanol | 0.0139 | 0.0142 | 0.0156 | 0.0175 | 0.0199 | 0.0238 | 0.0269 | 0.0302 | 0.0351
in methanol | 0.0246 | 0.0266 | 0.0295 | 0.0325 | 0.0364 | 0.0413 | 0.0471 | 0.0525 | 0.0611
in methyl acetate | 0.00319 | 0.00355 | 0.00388 | 0.00418 | 0.00473 | 0.00535 | 0.00609 | 0.00726 | 0.00888
in n-butanol | 0.00911 | 0.00972 | 0.0102 | 0.0114 | 0.0127 | 0.0141 | 0.016 | 0.0173 | 0.0199
in n-butyl acetate | 0.00177 | 0.00182 | 0.00204 | 0.0022 | 0.00238 | 0.00269 | 0.00309 | 0.0034 | 0.00381
in n-pentanol | 0.00655 | 0.00765 | 0.00845 | 0.00993 | 0.0112 | 0.0128 | 0.0159 | 0.0187 | 0.0221
in n-propanol | 0.0138 | 0.0146 | 0.0155 | 0.0172 | 0.02 | 0.0237 | 0.0258 | 0.03 | 0.0333
in n-propyl acetate | 0.0016 | 0.00169 | 0.00192 | 0.00204 | 0.00232 | 0.00247 | 0.00281 | 0.00317 | 0.00355
